Values quoted from earlier work, collected in patent US12564551B2, “Composition or oat extract comprising avenanthramide and β-glucan” (SYMRISE AG, priority 2020, dated 2026).

Conditions: Avn C, followed by Avn B and Avn A

For `O=C(C=Cc1ccc(O)c(O)c1)Nc1ccc(O)cc1C(=O)O` [Avn C, N-(3′,4′-dihydroxycinnamoyl)-5-hydroxyanthranilic acid], the “antioxidant activity, rank among Avns (in words)” value is listed as “highest activity”.
